In ChEMBL document CHEMBL1201862, “PubChem BioAssay data set” (2004):
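Dose response: 5 concentrations. Exposure: 48 h. Format: 96-well plates. Endpoint: linear interpolation; highest concentration if not reached. Here, GI50 denotes the concentration required for 50% inhibition of growth.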 Activity calls are given as the source filed them. Cut-off read from the data, not from the text of the source: active = GI50 up to about 1.1 µM and inactive = higher.

Assays:
Experiment in all cases: NCI anticancer screen, dose series, 48 h
NCI-H226 = system: NCI-H226
SNB-19 = system: SNB-19
MCF7 = system: MCF7
OVCAR-8 = system: OVCAR-8
SK-MEL-28 = system: SK-MEL-28
RPMI-8226 = system: RPMI-8226
NCI/ADR-RES = system: NCI/ADR-RES
RXF 393 = system: RXF 393
OVCAR-3 = system: OVCAR-3
OVCAR-5 = system: OVCAR-5
ACHN = system: ACHN
M14 = system: M14
NCI-H460 = system: NCI-H460
OVCAR-4 = system: OVCAR-4
SK-OV-3 = system: SK-OV-3
UACC-257 = system: UACC-257
MDA-MB-435 = system: MDA-MB-435
UO-31 = system: UO-31
HOP-62 = system: HOP-62
K562 = system: K562
Malme-3M = system: Malme-3M
UACC-62 = system: UACC-62
SW-620 = system: SW-620
786-0 = system: 786-0
SK-MEL-2 = system: SK-MEL-2
U-251 = system: U-251
T47D = system: T47D
COLO 205 = system: COLO 205
SK-MEL-5 = system: SK-MEL-5
SR = system: SR
SF-268 = system: SF-268
HCT-116 = system: HCT-116
MDA-MB-231 = system: MDA-MB-231
CAKI-1 = system: CAKI-1
HOP-92 = system: HOP-92
MDA-N = system: MDA-N
TK-10 = system: TK-10
MOLT-4 = system: MOLT-4
PC-3 = system: PC-3
LOX IMVI = system: LOX IMVI
KM12 = system: KM12
HCT-15 = system: HCT-15
EKVX = system: EKVX
HCC 2998 = system: HCC 2998
Hs-578T = system: Hs-578T
HT-29 = system: HT-29
BT-549 = system: BT-549
IGROV-1 = system: IGROV-1
A498 = system: A498
SF-539 = system: SF-539
SF-295 = system: SF-295
A549 = system: A549
NCI-H522 = system: NCI-H522
SN12C = system: SN12C
DU-145 = system: DU-145
CCRF-CEM = system: CCRF-CEM
NCI-H23 = system: NCI-H23
SNB-75 = system: SNB-75

Structure (SMILES): OCCCCn1cc(Cn2ncc3c(NCc4ccccc4)ncnc32)nn1
- GI50 (NCI-H226): > 100 µM (inactive)
- GI50 (SNB-19): > 100 µM (inactive)
- GI50 (MCF7): > 100 µM (inactive)
- GI50 (OVCAR-8): > 100 µM (inactive)
- GI50 (SK-MEL-28): > 100 µM (inactive)
- GI50 (RPMI-8226): > 100 µM (inactive)
- GI50 (NCI/ADR-RES): > 100 µM (inactive)
- GI50 (RXF 393): > 100 µM (inactive)
- GI50 (OVCAR-3): > 100 µM (inactive)
- GI50 (OVCAR-5): > 100 µM (inactive)
- GI50 (ACHN): > 100 µM (inactive)
- GI50 (M14): > 100 µM (inactive)
- GI50 (NCI-H460): > 100 µM (inactive)
- GI50 (OVCAR-4): > 100 µM (inactive)
- GI50 (SK-OV-3): > 100 µM (inactive)
- GI50 (UACC-257): > 100 µM (inactive)
- GI50 (MDA-MB-435): 33.7 µM (inactive)
- GI50 (UO-31): > 100 µM (inactive)
- GI50 (HOP-62): > 100 µM (inactive)
- GI50 (K562): 44.3 µM (inactive)
- GI50 (Malme-3M): > 100 µM (inactive)
- GI50 (UACC-62): > 100 µM (inactive)
- GI50 (SW-620): > 100 µM (inactive)
- GI50 (786-0): > 100 µM (inactive)
- GI50 (SK-MEL-2): > 100 µM (inactive)
- GI50 (U-251): > 100 µM (inactive)
- GI50 (T47D): 66.1 µM (inactive)
- GI50 (COLO 205): > 100 µM (inactive)
- GI50 (SK-MEL-5): > 100 µM (inactive)
- GI50 (SR): 15.9 µM (inactive)
- GI50 (SF-268): > 100 µM (inactive)
- GI50 (HCT-116): > 100 µM (inactive)
- GI50 (MDA-MB-231): > 100 µM (inactive)
- GI50 (CAKI-1): > 100 µM (inactive)
- GI50 (HOP-92): > 100 µM (inactive)
- GI50 (MDA-N): 42.8 µM (inactive)
- GI50 (TK-10): > 100 µM (inactive)
- GI50 (MOLT-4): 53.1 µM (inactive)
- GI50 (PC-3): > 100 µM (inactive)
- GI50 (LOX IMVI): > 100 µM (inactive)
- GI50 (KM12): > 100 µM (inactive)
- GI50 (HCT-15): > 100 µM
- GI50 (EKVX): > 100 µM (inactive)
- GI50 (HCC 2998): > 100 µM (inactive)
- GI50 (Hs-578T): > 100 µM (inactive)
- GI50 (HT-29): > 100 µM (inactive)
- GI50 (BT-549): > 100 µM (inactive)
- GI50 (IGROV-1): > 100 µM (inactive)
- GI50 (A498): > 100 µM (inactive)
- GI50 (SF-539): > 100 µM (inactive)
- GI50 (SF-295): > 100 µM (inactive)
- GI50 (A549): > 100 µM (inactive)
- GI50 (NCI-H522): > 100 µM (inactive)
- GI50 (SN12C): > 100 µM (inactive)
- GI50 (DU-145): > 100 µM (inactive)
- GI50 (CCRF-CEM): > 100 µM (inactive)
- GI50 (NCI-H23): > 100 µM (inactive)

Structure (SMILES): COc1ccccc1/N=N/C(=N\NC(=O)c1ccc(C)cc1)c1ccc(N(CCC#N)CCC#N)cc1C
- GI50 (NCI-H226): 2.19 µM (inactive)
- GI50 (SNB-19): 97.3 µM (inactive)
- GI50 (MCF7): 34.6 µM (inactive)
- GI50 (OVCAR-8): 42.3 µM (inactive)
- GI50 (SK-MEL-28): > 100 µM (inactive)
- GI50 (RPMI-8226): 40.4 µM (inactive)
- GI50 (NCI/ADR-RES): 63 µM (inactive)
- GI50 (RXF 393): 25.5 µM (inactive)
- GI50 (OVCAR-3): 18.7 µM (inactive)
- GI50 (OVCAR-5): > 100 µM (inactive)
- GI50 (ACHN): 89.1 µM (inactive)
- GI50 (M14): 38.2 µM (inactive)
- GI50 (NCI-H460): 32.3 µM (inactive)
- GI50 (OVCAR-4): 43.6 µM (inactive)
- GI50 (SK-OV-3): 32.5 µM (inactive)
- GI50 (UACC-257): 40.3 µM (inactive)
- GI50 (MDA-MB-435): 39.5 µM (inactive)
- GI50 (UO-31): 61.9 µM (inactive)
- GI50 (HOP-62): 50.9 µM (inactive)
- GI50 (K562): 37.8 µM (inactive)
- GI50 (Malme-3M): 25.4 µM (inactive)
- GI50 (SW-620): 47.5 µM (inactive)
- GI50 (786-0): 70.3 µM (inactive)
- GI50 (SK-MEL-2): 36.4 µM (inactive)
- GI50 (U-251): 43.9 µM (inactive)
- GI50 (T47D): 20.8 µM (inactive)
- GI50 (COLO 205): 15.7 µM (inactive)
- GI50 (SK-MEL-5): 20.8 µM (inactive)
- GI50 (SR): 29.3 µM (inactive)
- GI50 (SF-268): 38.1 µM (inactive)
- GI50 (HCT-116): 31.6 µM (inactive)
- GI50 (MDA-MB-231): 47.9 µM (inactive)
- GI50 (CAKI-1): > 100 µM (inactive)
- GI50 (HOP-92): > 100 µM (inactive)
- GI50 (MDA-N): 45.6 µM (inactive)
- GI50 (TK-10): > 100 µM (inactive)
- GI50 (MOLT-4): 35.2 µM (inactive)
- GI50 (PC-3): 35 µM (inactive)
- GI50 (LOX IMVI): 40.9 µM (inactive)
- GI50 (KM12): 41.6 µM (inactive)
- GI50 (HCT-15): 41.4 µM
- GI50 (EKVX): > 100 µM (inactive)
- GI50 (HCC 2998): 42.6 µM (inactive)
- GI50 (Hs-578T): 39.3 µM (inactive)
- GI50 (SNB-75): 24.1 µM (inactive)
- GI50 (HT-29): 39.7 µM (inactive)
- GI50 (BT-549): 35.2 µM (inactive)
- GI50 (IGROV-1): 33.7 µM (inactive)
- GI50 (A498): 51.8 µM (inactive)
- GI50 (SF-539): > 100 µM (inactive)
- GI50 (SF-295): 48.5 µM (inactive)
- GI50 (A549): 40.9 µM (inactive)
- GI50 (SN12C): 39.4 µM (inactive)
- GI50 (DU-145): 32.6 µM (inactive)
- GI50 (CCRF-CEM): 0.693 µM (active)
- GI50 (NCI-H23): 28.2 µM (inactive)

Structure (SMILES): NC(=O)CSc1nc2ccccc2c(=O)n1N
- GI50 (NCI-H226): > 100 µM (inactive)
- GI50 (SNB-19): > 100 µM (inactive)
- GI50 (MCF7): > 100 µM (inactive)
- GI50 (OVCAR-8): > 100 µM (inactive)
- GI50 (SK-MEL-28): > 100 µM (inactive)
- GI50 (RPMI-8226): > 100 µM (inactive)
- GI50 (NCI/ADR-RES): > 100 µM (inactive)
- GI50 (RXF 393): > 100 µM (inactive)
- GI50 (OVCAR-3): > 100 µM (inactive)
- GI50 (OVCAR-5): > 100 µM (inactive)
- GI50 (ACHN): > 100 µM (inactive)
- GI50 (M14): > 100 µM (inactive)
- GI50 (NCI-H460): > 100 µM (inactive)
- GI50 (OVCAR-4): > 100 µM (inactive)
- GI50 (UACC-257): > 100 µM (inactive)
- GI50 (MDA-MB-435): > 100 µM (inactive)
- GI50 (UO-31): > 100 µM (inactive)
- GI50 (K562): > 100 µM (inactive)
- GI50 (Malme-3M): > 100 µM (inactive)
- GI50 (UACC-62): > 100 µM (inactive)
- GI50 (SW-620): > 100 µM (inactive)
- GI50 (786-0): > 100 µM (inactive)
- GI50 (SK-MEL-2): > 100 µM (inactive)
- GI50 (U-251): > 100 µM (inactive)
- GI50 (T47D): > 100 µM (inactive)
- GI50 (COLO 205): > 100 µM (inactive)
- GI50 (SK-MEL-5): > 100 µM (inactive)
- GI50 (SR): > 100 µM (inactive)
- GI50 (SF-268): > 100 µM (inactive)
- GI50 (HCT-116): > 100 µM (inactive)
- GI50 (MDA-MB-231): > 100 µM (inactive)
- GI50 (CAKI-1): > 100 µM (inactive)
- GI50 (HOP-92): > 100 µM (inactive)
- GI50 (MDA-N): > 100 µM (inactive)
- GI50 (TK-10): > 100 µM (inactive)
- GI50 (MOLT-4): > 100 µM (inactive)
- GI50 (PC-3): > 100 µM (inactive)
- GI50 (LOX IMVI): > 100 µM (inactive)
- GI50 (KM12): > 100 µM (inactive)
- GI50 (HCT-15): > 100 µM
- GI50 (EKVX): > 100 µM (inactive)
- GI50 (HCC 2998): > 100 µM (inactive)
- GI50 (Hs-578T): > 100 µM (inactive)
- GI50 (SNB-75): > 100 µM (inactive)
- GI50 (HT-29): > 100 µM (inactive)
- GI50 (BT-549): > 100 µM (inactive)
- GI50 (IGROV-1): > 100 µM (inactive)
- GI50 (A498): > 100 µM (inactive)
- GI50 (SF-539): > 100 µM (inactive)
- GI50 (SF-295): > 100 µM (inactive)
- GI50 (A549): > 100 µM (inactive)
- GI50 (NCI-H522): > 100 µM (inactive)
- GI50 (SN12C): > 100 µM (inactive)
- GI50 (DU-145): > 100 µM (inactive)
- GI50 (NCI-H23): > 100 µM (inactive)
